Measured values reported in patent publication US9937234B2, “Compositions and methods for using and identifying antimicrobial agents” (priority 2013, dated 2018).
“Also recorded” adds a separate entry of the source.

Experiments:
[1] = test system: B. anthracis Sterne strain bacilli; type: cell-based, Bacillus anthracis
[2] = test system: B. anthracis Sterne strain spores; type: cell-based, Bacillus anthracis
[3] = test system: E. coli parent strain (BW25113); assay: Antimicrobial assay against E. coli parent strain (cfu/mL); type: cell-based, Escherichia coli
[4] = test system: E. coli transposon mutants Tnx 6 and Tnx 15; assay: Secondary screen of E. coli transposon mutants (cfu/mL); type: cell-based, Escherichia coli; details: 6 μg/mL for 2 h
[5] = test system: E. coli ΔaceE; assay: Antimicrobial assay against E. coli ΔaceE (cfu/mL); type: cell-based, Escherichia coli; details: 2 h
[6] = test system: E. coli ΔaceE, ΔaceF and ΔlpdA; assay: Antimicrobial assay against E. coli PDHc subunit deletion mutants (cfu/mL); type: cell-based, Escherichia coli; details: concentrations as high as 48 μg/mL; 2 h

Molecule	antimicrobial activity against the vegetative form (bacilli) [1]	hierarchy of activity in ability to kill bacilli and block spore germination [1]	hierarchy of direct antimicrobial activity [1]	effect on spore form / spore germination [2]	further results
human CXCL9	directly kill vegetative cells; also recorded: antimicrobial activity against the vegetative form	CXCL10>CXCL9>CXCL11	hCXCL10>hCXCL9>hCXCL11	direct inhibitory effects on spore germination; also recorded: spore germination was blocked or reduced	–
human CXCL10	directly kill vegetative cells; also recorded: antimicrobial activity against the vegetative form	CXCL10>CXCL9>CXCL11	hCXCL10>hCXCL9>hCXCL11	direct inhibitory effects on spore germination; also recorded: spore germination was blocked or reduced	EC50 value [1]: 4 to 6 µg/mL; EC50 value, killing effect [1]: 0.33 µg/mL; more potent killing effect, stationary vs exponential phase [1]: > 10 fold; effect on parent strain ([3]; 6 μg/mL): not entirely killed; effect on parent strain ([3]; 10 μg/mL for 2 hours): killed; effect on parent strain ([3]; 36 μg/mL (4.2 μM) and 48 μg/mL (5.6 μM)): killed; susceptibility of parent strain complemented with empty vector or aceE vector ([3]; pBR322 or pUVA411, increasing concentrations, 2 h): remained similarly susceptible; susceptibility of Tnx 6 and Tnx 15 in relation to the parent strain [4]: significantly decreased susceptibility; susceptibility of ΔaceE ([5]; increasing concentrations, compared to parent strain): significantly less susceptible; also recorded: exhibits resistance; also recorded: resistant; susceptibility of ΔaceE complemented with aceE ([5]; plasmid pUVA411 (aceE)): restored susceptibility; also recorded: restores the parent strain susceptibility phenotype; susceptibility of ΔaceE, ΔaceF and ΔlpdA deletion mutants [6]: equally resistant
CCL5 [reference compound]	no antimicrobial activity	–	–	no antimicrobial activity	–
CCL2 [reference compound]	no antimicrobial activity	–	–	no antimicrobial activity	–
murine CXCL10 (protein, listed as Mus musculus) MNPSAAVIFCLILLGLSGTQGIPLARTVRCNCIHIDDGPVRMRAIGKLEIIPASLSCPRVEIIATMKKNDEQRCLNPESKTIKNLMKAFSQKRSKRAP	–	CXCL9>CXCL10>CXCL11	mCXCL9>mCXCL10>mCXCL11	–	–
murine CXCL11 (protein, listed as Mus musculus) QGFLMFKQGRCLCIGPGMKAVKMAEIEKASVIYPSNGCDKVEVIVTMKAHKRQRCLDPRSKQARLIMQAIEKKNF	–	CXCL9>CXCL10>CXCL11	mCXCL9>mCXCL10>mCXCL11	–	–
murine CXCL9 (protein, listed as Mus musculus) KSAVLFLLGIIFLEQCGVRGTLVIRNARCSCISTSRGTIHYKSLKDLKQFAPSPNCNKTEIIATLKNGDQTCLDPDSANVKKLMKEWE	–	CXCL9>CXCL10>CXCL11	mCXCL9>mCXCL10>mCXCL11	–	–
human CXCL11 (protein, listed as Homo sapiens) QGFPMFKRGRCLCIGPGVKAVKVADIEKASIMYPSNNCDKIEVIITLKENKGQRCLNPKSKQARLIIKKVERKNF	directly kill vegetative cells; also recorded: antimicrobial activity against the vegetative form	CXCL10>CXCL9>CXCL11	hCXCL10>hCXCL9>hCXCL11	direct inhibitory effects on spore germination; also recorded: spore germination was blocked or reduced	–
